{"source": "the NIST ThermoML archive (doi:10.1016/j.jct.2012.08.010)", "assay": "refractive index (Na D-line) (dimensionless); φn = volume fraction of the nth substance listed", "conditions": "101 kPa, Liquid, Standard Abbe refractometry", "note": "± gives the expanded uncertainty stated by the source.", "data": [{"smiles": "C=C[Si]1(C)O[Si](C)(C=C)O[Si](C)(C=C)O[Si](C)(C=C)O1", "note": "(stereo not given) [2,4,6,8-tetramethyl-2,4,6,8-tetravinylcycloterasiloxane] + Cc1cccc(C)c1", "values": [{"measurement": "refractive index", "setting": "288.15 K, φ1 = 0.1301", "value": "1.4916 ± 0.0003"}, {"measurement": "refractive index", "setting": "288.15 K, φ1 = 0.2524", "value": "1.48392 ± 0.00031"}, {"measurement": "refractive index", "setting": "288.15 K, φ1 = 0.3347", "value": "1.47877 ± 0.00031"}, {"measurement": "refractive index", "setting": "288.15 K, φ1 = 0.4159", "value": "1.47367 ± 0.00031"}, {"measurement": "refractive index", "setting": "288.15 K, φ1 = 0.4865", "value": "1.46917 ± 0.00032"}, {"measurement": "refractive index", "setting": "288.15 K, φ1 = 0.5517", "value": "1.46505 ± 0.00032"}, {"measurement": "refractive index", "setting": "288.15 K, φ1 = 0.5985", "value": "1.46211 ± 0.00032"}, {"measurement": "refractive index", "setting": "288.15 K, φ1 = 0.653", "value": "1.45885 ± 0.00032"}, {"measurement": "refractive index", "setting": "288.15 K, φ1 = 0.6984", "value": "1.45591 ± 0.00032"}, {"measurement": "refractive index", "setting": "288.15 K, φ1 = 0.7389", "value": "1.45344 ± 0.00032"}, {"measurement": "refractive index", "setting": "288.15 K, φ1 = 0.776", "value": "1.45106 ± 0.00032"}, {"measurement": "refractive index", "setting": "288.15 K, φ1 = 0.8087", "value": "1.44894 ± 0.00032"}, {"measurement": "refractive index", "setting": "288.15 K, φ1 = 0.8405", "value": "1.44691 ± 0.00032"}, {"measurement": "refractive index", "setting": "288.15 K, φ1 = 0.866", "value": "1.44524 ± 0.00032"}, {"measurement": "refractive index", "setting": "288.15 K, φ1 = 0.8941", "value": "1.44346 ± 0.00032"}, {"measurement": "refractive index", "setting": "288.15 K, φ1 = 0.9183", "value": "1.44189 ± 0.00032"}, {"measurement": "refractive index", "setting": "288.15 K, φ1 = 0.941", "value": "1.44046 ± 0.00032"}, {"measurement": "refractive index", "setting": "288.15 K, φ1 = 0.9804", "value": "1.43797 ± 0.00033"}, {"measurement": "refractive index", "setting": "288.15 K, φ1 = 1", "value": "1.43674 ± 0.00033"}, {"measurement": "refractive index", "setting": "298.15 K, φ1 = 0.1302", "value": "1.48641 ± 0.00031"}, {"measurement": "refractive index", "setting": "298.15 K, φ1 = 0.2525", "value": "1.4788 ± 0.0003"}, {"measurement": "refractive index", "setting": "298.15 K, φ1 = 0.3347", "value": "1.47372 ± 0.00031"}, {"measurement": "refractive index", "setting": "298.15 K, φ1 = 0.416", "value": "1.46865 ± 0.00031"}, {"measurement": "refractive index", "setting": "298.15 K, φ1 = 0.4866", "value": "1.46426 ± 0.00032"}, {"measurement": "refractive index", "setting": "298.15 K, φ1 = 0.5518", "value": "1.46017 ± 0.00032"}, {"measurement": "refractive index", "setting": "298.15 K, φ1 = 0.5986", "value": "1.45726 ± 0.00032"}, {"measurement": "refractive index", "setting": "298.15 K, φ1 = 0.6531", "value": "1.454 ± 0.001"}, {"measurement": "refractive index", "setting": "298.15 K, φ1 = 0.6984", "value": "1.45105 ± 0.00032"}, {"measurement": "refractive index", "setting": "298.15 K, φ1 = 0.7389", "value": "1.44845 ± 0.00032"}, {"measurement": "refractive index", "setting": "298.15 K, φ1 = 0.7761", "value": "1.4461 ± 0.0003"}, {"measurement": "refractive index", "setting": "298.15 K, φ1 = 0.8087", "value": "1.44408 ± 0.00032"}, {"measurement": "refractive index", "setting": "298.15 K, φ1 = 0.8405", "value": "1.44212 ± 0.00032"}, {"measurement": "refractive index", "setting": "298.15 K, φ1 = 0.866", "value": "1.44048 ± 0.00032"}, {"measurement": "refractive index", "setting": "298.15 K, φ1 = 0.8941", "value": "1.4387 ± 0.0003"}, {"measurement": "refractive index", "setting": "298.15 K, φ1 = 0.9183", "value": "1.43717 ± 0.00032"}, {"measurement": "refractive index", "setting": "298.15 K, φ1 = 0.941", "value": "1.43574 ± 0.00032"}, {"measurement": "refractive index", "setting": "298.15 K, φ1 = 0.9804", "value": "1.43324 ± 0.00033"}, {"measurement": "refractive index", "setting": "298.15 K, φ1 = 1", "value": "1.43202 ± 0.00033"}, {"measurement": "refractive index", "setting": "308.15 K, φ1 = 0.1302", "value": "1.48109 ± 0.00031"}, {"measurement": "refractive index", "setting": "308.15 K, φ1 = 0.2525", "value": "1.47359 ± 0.00031"}, {"measurement": "refractive index", "setting": "308.15 K, φ1 = 0.3348", "value": "1.46856 ± 0.00031"}, {"measurement": "refractive index", "setting": "308.15 K, φ1 = 0.4161", "value": "1.46354 ± 0.00031"}, {"measurement": "refractive index", "setting": "308.15 K, φ1 = 0.4867", "value": "1.45917 ± 0.00032"}, {"measurement": "refractive index", "setting": "308.15 K, φ1 = 0.5519", "value": "1.45513 ± 0.00032"}, {"measurement": "refractive index", "setting": "308.15 K, φ1 = 0.5987", "value": "1.45223 ± 0.00032"}, {"measurement": "refractive index", "setting": "308.15 K, φ1 = 0.6532", "value": "1.44903 ± 0.00032"}, {"measurement": "refractive index", "setting": "308.15 K, φ1 = 0.6985", "value": "1.4461 ± 0.0003"}, {"measurement": "refractive index", "setting": "308.15 K, φ1 = 0.739", "value": "1.44355 ± 0.00032"}, {"measurement": "refractive index", "setting": "308.15 K, φ1 = 0.7761", "value": "1.44125 ± 0.00032"}, {"measurement": "refractive index", "setting": "308.15 K, φ1 = 0.8088", "value": "1.43919 ± 0.00032"}, {"measurement": "refractive index", "setting": "308.15 K, φ1 = 0.8406", "value": "1.43727 ± 0.00032"}, {"measurement": "refractive index", "setting": "308.15 K, φ1 = 0.8661", "value": "1.43566 ± 0.00032"}, {"measurement": "refractive index", "setting": "308.15 K, φ1 = 0.8942", "value": "1.43391 ± 0.00032"}, {"measurement": "refractive index", "setting": "308.15 K, φ1 = 0.9183", "value": "1.4324 ± 0.0003"}, {"measurement": "refractive index", "setting": "308.15 K, φ1 = 0.941", "value": "1.43098 ± 0.00032"}, {"measurement": "refractive index", "setting": "308.15 K, φ1 = 0.9804", "value": "1.4285 ± 0.0003"}, {"measurement": "refractive index", "setting": "308.15 K, φ1 = 1", "value": "1.4273 ± 0.0003"}, {"measurement": "refractive index", "setting": "318.15 K, φ1 = 0.1303", "value": "1.47582 ± 0.00031"}, {"measurement": "refractive index", "setting": "318.15 K, φ1 = 0.2526", "value": "1.46841 ± 0.00031"}, {"measurement": "refractive index", "setting": "318.15 K, φ1 = 0.3349", "value": "1.46342 ± 0.00031"}, {"measurement": "refractive index", "setting": "318.15 K, φ1 = 0.4162", "value": "1.45843 ± 0.00031"}, {"measurement": "refractive index", "setting": "318.15 K, φ1 = 0.4867", "value": "1.45413 ± 0.00032"}, {"measurement": "refractive index", "setting": "318.15 K, φ1 = 0.5519", "value": "1.45015 ± 0.00032"}, {"measurement": "refractive index", "setting": "318.15 K, φ1 = 0.5988", "value": "1.44727 ± 0.00032"}, {"measurement": "refractive index", "setting": "318.15 K, φ1 = 0.6533", "value": "1.44383 ± 0.00032"}, {"measurement": "refractive index", "setting": "318.15 K, φ1 = 0.6986", "value": "1.44117 ± 0.00032"}, {"measurement": "refractive index", "setting": "318.15 K, φ1 = 0.7391", "value": "1.43865 ± 0.00032"}, {"measurement": "refractive index", "setting": "318.15 K, φ1 = 0.7762", "value": "1.43639 ± 0.00032"}, {"measurement": "refractive index", "setting": "318.15 K, φ1 = 0.8088", "value": "1.43434 ± 0.00032"}, {"measurement": "refractive index", "setting": "318.15 K, φ1 = 0.8406", "value": "1.43244 ± 0.00032"}, {"measurement": "refractive index", "setting": "318.15 K, φ1 = 0.8661", "value": "1.43085 ± 0.00032"}, {"measurement": "refractive index", "setting": "318.15 K, φ1 = 0.8942", "value": "1.42911 ± 0.00032"}, {"measurement": "refractive index", "setting": "318.15 K, φ1 = 0.9184", "value": "1.42763 ± 0.00032"}, {"measurement": "refractive index", "setting": "318.15 K, φ1 = 0.9411", "value": "1.42622 ± 0.00032"}, {"measurement": "refractive index", "setting": "318.15 K, φ1 = 0.9804", "value": "1.42377 ± 0.00033"}, {"measurement": "refractive index", "setting": "318.15 K, φ1 = 1", "value": "1.42257 ± 0.00033"}, {"measurement": "refractive index", "setting": "328.15 K, φ1 = 0.1303", "value": "1.47053 ± 0.00031"}, {"measurement": "refractive index", "setting": "328.15 K, φ1 = 0.2526", "value": "1.46321 ± 0.00031"}, {"measurement": "refractive index", "setting": "328.15 K, φ1 = 0.335", "value": "1.45825 ± 0.00031"}, {"measurement": "refractive index", "setting": "328.15 K, φ1 = 0.4163", "value": "1.45333 ± 0.00031"}, {"measurement": "refractive index", "setting": "328.15 K, φ1 = 0.4868", "value": "1.44908 ± 0.00032"}, {"measurement": "refractive index", "setting": "328.15 K, φ1 = 0.552", "value": "1.44511 ± 0.00032"}, {"measurement": "refractive index", "setting": "328.15 K, φ1 = 0.5988", "value": "1.44229 ± 0.00032"}, {"measurement": "refractive index", "setting": "328.15 K, φ1 = 0.6533", "value": "1.43851 ± 0.00032"}, {"measurement": "refractive index", "setting": "328.15 K, φ1 = 0.6986", "value": "1.43604 ± 0.00032"}, {"measurement": "refractive index", "setting": "328.15 K, φ1 = 0.7391", "value": "1.43374 ± 0.00032"}, {"measurement": "refractive index", "setting": "328.15 K, φ1 = 0.7762", "value": "1.43152 ± 0.00032"}, {"measurement": "refractive index", "setting": "328.15 K, φ1 = 0.8089", "value": "1.42952 ± 0.00032"}, {"measurement": "refractive index", "setting": "328.15 K, φ1 = 0.8407", "value": "1.42761 ± 0.00032"}, {"measurement": "refractive index", "setting": "328.15 K, φ1 = 0.8661", "value": "1.42604 ± 0.00032"}, {"measurement": "refractive index", "setting": "328.15 K, φ1 = 0.8942", "value": "1.42434 ± 0.00032"}, {"measurement": "refractive index", "setting": "328.15 K, φ1 = 0.9184", "value": "1.42285 ± 0.00032"}, {"measurement": "refractive index", "setting": "328.15 K, φ1 = 0.9411", "value": "1.42145 ± 0.00032"}, {"measurement": "refractive index", "setting": "328.15 K, φ1 = 0.9804", "value": "1.41904 ± 0.00033"}, {"measurement": "refractive index", "setting": "328.15 K, φ1 = 1", "value": "1.41785 ± 0.00033"}]}]}
